This is an account of results in PMC12239106, “Discovery of conformation constrained tetracyclic compounds as potent chitinase OfChi-h inhibitors with a novel binding mode” (Journal of Enzyme Inhibition and Medicinal Chemistry, 2025).

Molecules are shown by their SMILES. Read-outs that look alike come from different tables or passages of the source.

In assay [1] the target is T1, OfChi-h (Ostrinia furnacalis, UniProt Q4AE59).
T1 construct: made in house; host or cells: Pichia pastoris GS115
Briefly: Chitinase inhibition assay and Ki determination (MU-β-(GlcNAc)2 substrate, Dixon plot), OfChi-h. The format is biochemical. As to conditions: for inhibition at 10 µM: 10 μM inhibitor, 10 nM enzyme, 4 μM MU-β-(GlcNAc)2, pH 6.0, 30 °C, 20 min; for Ki: Dixon plot, substrate 2–8 μM. As for the experimental part:
(§1) SmChiA was expressed in Escherichia coli BL21(DE3), HsChit1 and OfChi-h were overexpressed in Pichia pastoris GS115. The Escherichia coli BL21(DE3) strain was purchased from TaKaRa Biotech (Dalian, […]) while the Pichia pastoris GS115 strain was obtained from Invitrogen (Thermo Fisher Scientific, CA, USA), both of which were cultured and handled according to the protocols provided by suppliers. All chitinases were purified using immobilised metal ion affinity chromatography as previously described. Briefly, solid ammonium sulphate was slowly added to the culture supernatant to achieve 75% saturation. After incubation at 4 °C for 24 h, the precipitated proteins were collected by centrifugation at 12,000 × g for 30 min at 4 °C. The pellet was resuspended thoroughly in buffer A (20 mM sodium phosphate, 0.5 M sodium chloride, pH 7.4), and the solution was centrifuged again at 12,000 × g for 15 min at 4 °C to remove insoluble material. The clarified supernatant was loaded onto a 5 ml HisTrap™ Crude affinity column (GE Healthcare) that had been pre-equilibrated with buffer A. The column was subsequently washed with buffer A containing 75 mM imidazole to remove non-specifically bound proteins. Recombinant chitinases were eluted using buffer A containing 250 mM imidazole. The expressed proteins were quantified using a BCA protein assay kit (TaKaRa Biotech, China). And their purities were determined by SDS-PAGE and found to be >95% in all cases.
(§2) Chitinase activities for SmChiA, HsChit1 and OfChi-h were determined using 4-methylumbelliferyl-N, N′-diacetyl-β-D-chitobioside (MU-β-(GlcNAc)2) (purchased from Sigma) as a substrate. The final reaction mixture volume used for inhibitor screening was 100 μL, consisting of 10 nM enzyme, 4 μM MU-β-(GlcNAc)2, 10 μM inhibitor, and 2% DMSO in a 20 mM sodium phosphate buffer (pH 6.0). The reaction in the absence of inhibitor was used as a positive control. After incubation at 30 °C for 20 min, 0.5 M sodium carbonate was added to the reaction mixture, and the fluorescence produced by the released 4-MU was quantified with a Varioskan Flash microplate reader (Thermo Fisher Scientific) using excitation and emission wavelengths of 360 and 450 nm, respectively. Experiments were performed in triplicate unless specified otherwise. For Ki value determination, the inhibitor concentration was varied in the above reaction, and different concentrations of substrate (2–8 μM) were used. The amount of released 4-MU was quantified as above, and the Ki value and the mode of inhibition were determined using the Dixon plot.

The next assay addresses T2, SmChiA (Serratia marcescens, UniProt P07254).
T2 construct: made in house; host or cells: Escherichia coli BL21(DE3)
Put plainly: Chitinase inhibition assay and Ki determination (MU-β-(GlcNAc)2 substrate, Dixon plot), SmChiA. It is filed as biochemical. To be noted: for inhibition at 10 µM: 10 μM inhibitor, 10 nM enzyme, 4 μM MU-β-(GlcNAc)2, pH 6.0, 30 °C, 20 min; for Ki: Dixon plot, three substrate concentrations. The protocol: as §1, §2

The next assay concerns the target T3, HsChit1 (Homo sapiens, UniProt Q13231).
T3 construct: made in house; host or cells: Pichia pastoris GS115
Briefly: Chitinase inhibition assay and Ki determination (MU-β-(GlcNAc)2 substrate, Dixon plot), HsChit1. It is filed as biochemical. As to conditions: three substrate concentrations. The protocol: SmChiA was expressed in Escherichia coli BL21(DE3), HsChit1 and OfChi-h were overexpressed in Pichia pastoris GS115. The Escherichia coli BL21(DE3) strain was purchased from TaKaRa Biotech (Dalian, […]) while the Pichia pastoris GS115 strain was obtained from Invitrogen (Thermo Fisher Scientific, CA, USA), both of which were cultured and handled according to the protocols provided by suppliers. All chitinases were purified using immobilised metal ion affinity chromatography as previously described. Briefly, solid ammonium sulphate was slowly added to the culture supernatant to achieve 75% saturation. After incubation at 4 °C for 24 h, the precipitated proteins were collected by centrifugation at 12,000 × g for 30 min at 4 °C. […] The expressed proteins were quantified using a BCA protein assay kit (TaKaRa Biotech, China). And their purities were determined by SDS-PAGE and found to be >95% in all cases.
Chitinase activities for SmChiA, HsChit1 and OfChi-h were determined using 4-methylumbelliferyl-N, N′-diacetyl-β-D-chitobioside (MU-β-(GlcNAc)2) (purchased from Sigma) as a substrate. […] After incubation at 30 °C for 20 min, 0.5 M sodium carbonate was added to the reaction mixture, and the fluorescence produced by the released 4-MU was quantified with a Varioskan Flash microplate reader (Thermo Fisher Scientific) using excitation and emission wavelengths of 360 and 450 nm, respectively. […]

The target of assay [2] is T1, OfChi-h. As to conditions: read-out: OfChi-h Ki; cited from earlier work.

T1 sequence (Q4AE59 18-553): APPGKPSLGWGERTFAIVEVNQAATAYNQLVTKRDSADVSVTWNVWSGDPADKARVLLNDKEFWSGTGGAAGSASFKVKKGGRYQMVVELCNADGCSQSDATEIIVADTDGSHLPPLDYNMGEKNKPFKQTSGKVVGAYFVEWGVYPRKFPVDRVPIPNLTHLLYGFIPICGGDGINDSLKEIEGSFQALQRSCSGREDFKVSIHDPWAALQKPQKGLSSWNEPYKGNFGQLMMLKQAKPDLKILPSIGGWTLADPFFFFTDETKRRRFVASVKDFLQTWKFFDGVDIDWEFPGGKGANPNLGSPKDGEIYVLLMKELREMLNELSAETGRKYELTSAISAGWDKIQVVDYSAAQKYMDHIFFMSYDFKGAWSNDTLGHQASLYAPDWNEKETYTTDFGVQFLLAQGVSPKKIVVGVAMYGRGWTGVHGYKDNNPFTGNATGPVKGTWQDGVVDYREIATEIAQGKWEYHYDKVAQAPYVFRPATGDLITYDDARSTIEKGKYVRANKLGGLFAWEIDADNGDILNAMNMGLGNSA
T2 sequence (P07254 24-563): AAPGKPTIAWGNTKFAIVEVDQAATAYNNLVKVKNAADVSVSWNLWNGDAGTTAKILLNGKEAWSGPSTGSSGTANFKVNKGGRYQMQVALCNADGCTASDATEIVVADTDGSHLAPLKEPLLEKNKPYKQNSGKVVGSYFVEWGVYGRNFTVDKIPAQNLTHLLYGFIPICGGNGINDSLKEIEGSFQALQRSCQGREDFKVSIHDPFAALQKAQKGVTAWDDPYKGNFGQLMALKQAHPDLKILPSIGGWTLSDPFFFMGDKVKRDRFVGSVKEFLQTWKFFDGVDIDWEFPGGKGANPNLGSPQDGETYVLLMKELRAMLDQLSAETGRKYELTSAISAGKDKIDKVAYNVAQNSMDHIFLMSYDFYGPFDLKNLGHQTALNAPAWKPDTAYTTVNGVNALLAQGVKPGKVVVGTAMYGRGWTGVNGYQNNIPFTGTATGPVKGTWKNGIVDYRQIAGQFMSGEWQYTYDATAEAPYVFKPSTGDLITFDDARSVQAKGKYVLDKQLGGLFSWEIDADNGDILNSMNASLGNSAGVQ
T3 sequence (Q13231 22-466): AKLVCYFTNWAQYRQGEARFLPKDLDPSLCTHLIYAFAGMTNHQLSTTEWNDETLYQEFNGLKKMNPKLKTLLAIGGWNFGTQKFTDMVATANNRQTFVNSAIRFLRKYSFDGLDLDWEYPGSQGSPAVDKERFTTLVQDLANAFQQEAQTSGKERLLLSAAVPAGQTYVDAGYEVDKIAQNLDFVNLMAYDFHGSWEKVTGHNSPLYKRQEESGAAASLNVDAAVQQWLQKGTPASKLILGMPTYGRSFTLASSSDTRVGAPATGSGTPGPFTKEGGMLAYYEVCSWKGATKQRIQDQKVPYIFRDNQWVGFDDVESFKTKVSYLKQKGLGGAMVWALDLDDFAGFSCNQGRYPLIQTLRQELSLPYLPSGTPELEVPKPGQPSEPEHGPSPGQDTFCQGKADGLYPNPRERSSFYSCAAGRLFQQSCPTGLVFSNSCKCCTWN

For the compound `Cc1cccn2c(=O)c3cc4c(=O)n(Cc5ccccc5)cnc4nc3nc12` [6d], the inhibition – broadly, how much of the control response was suppressed – at 10 µM stood at 72.5 ± 2.4% on OfChi-h [1] and 32 ± 1.4% on SmChiA. Also, the affinity at OfChi-h [1] corresponds to a Ki of 1420 nM.

For `COc1ccc(Cn2cnc3nc4nc5c(C)cccn5c(=O)c4cc3c2=O)cc1OC` [6f], the inhibition at 10 µM at OfChi-h [1] was 69.3 ± 4.4%; against SmChiA, 34.2 ± 2.5%. Moreover, the Ki (commonly the dissociation constant of the complex between target and ligand, obtained from inhibition or displacement) on OfChi-h [1] was 747 nM.

With `C#CCn1cnc2nc3nc4c(C)cccn4c(=O)c3cc2c1=O` [6l], on OfChi-h [1], 10 µM produced 81 ± 0.8% inhibition and the Ki came to 1340 nM. The compound also had an inhibition at 10 µM against SmChiA of 37.5 ± 2.2%.

Take `Cc1cccn2c(=O)c3cc4c(=O)n(C(C)c5cccnc5)cnc4nc3nc12` (stereo not shown) [6b]: the values for the inhibition at 10 µM at OfChi-h [1] and against SmChiA were 96.8 ± 0.1% and 88.7 ± 2.2%, respectively. The compound further yielded a Ki on OfChi-h [1] of 215 nM.

Turning to `Cc1cccn2c(=O)c3cc4c(=O)n(CCc5c[nH]c6ccccc56)cnc4nc3nc12` [6j], the inhibition at 10 µM was found to be 49.6 ± 2.2% against OfChi-h [1] and 42.4 ± 4.1% at SmChiA.

Turning to `Cc1cccn2c(=O)c3cc4c(=O)n(Cc5cccnc5)cnc4nc3nc12` [6a], the inhibition at 10 µM at OfChi-h [1] came to 99.3 ± 0.2%; against SmChiA it was 98.5 ± 0.2%. Also, the “Improvement in inhibitory activity against OfChi-h (Ki) compared to 5a” value at OfChi-h [1] (6a Ki versus 5a Ki) is “approximately 15 fold”. Moreover, the figures for the Ki at OfChi-h [1], at SmChiA and on HsChit1 were 58 nM, 126 nM and 295 nM, respectively.

Consider `Cc1cccn2c(=O)c3cc(C(=O)NCc4cccnc4)c(N)nc3nc12` [5a, reference compound], for which the inhibitory constant (Ki) was 6190 ± 155 nM at SmChiA and 860 nM at OfChi-h [2].

On to `COc1cc(Cn2cnc3nc4nc5c(C)cccn5c(=O)c4cc3c2=O)cc(OC)c1OC` [6e], for which, on OfChi-h [1], the inhibition at 10 µM was 96.2 ± 0.3% and the affinity corresponds to a Ki of 65 nM. This compound also displayed an inhibition at 10 µM against SmChiA of 28.2 ± 4.8%.

At OfChi-h [1], `Cc1cccn2c(=O)c3cc4c(=O)n(Cc5cnccn5)cnc4nc3nc12` [6c] returned an inhibition at 10 µM of 95.3 ± 0.5% and an inhibitory constant (Ki) of 294 nM. This compound also returned an inhibition at 10 µM at SmChiA of 91.5 ± 0.8%.

On to `Cc1cccn2c(=O)c3cc4c(=O)n(Cc5cccc(N)c5)cnc4nc3nc12` [6h], for which the values for the inhibition at 10 µM against OfChi-h [1] and against SmChiA were 89 ± 1.5% and 37.9 ± 0.4%, respectively. On OfChi-h [1], this compound came in with a Ki of 276 nM.

Consider `Cc1cccn2c(=O)c3cc4c(=O)n(Cc5ccco5)cnc4nc3nc12` [6k], for which the values for the inhibition at 10 µM against OfChi-h [1] and against SmChiA were 86.8 ± 0.8% and 47.5 ± 1.2%, respectively. Moreover, the inhibition constant (Ki) at OfChi-h [1] stood at 1510 nM.

At OfChi-h [1], `Cc1cccn2c(=O)c3cc4c(=O)n(Cc5ccc(Cl)c(F)c5)cnc4nc3nc12` [6i] gave an inhibition at 10 µM of 42.9 ± 1% and a Ki of 2890 nM. Further, at SmChiA, the inhibition at 10 µM turned out to be 31.7 ± 0.2%.

In the case of `COc1ccc(Cn2cnc3nc4nc5c(C)cccn5c(=O)c4cc3c2=O)cc1` [6g], the inhibition at 10 µM stood at 74 ± 2% on OfChi-h [1] and 30.3 ± 2.7% at SmChiA. Besides, the affinity at OfChi-h [1], expressed as Ki, was 1030 nM.
